# Results from US20220315554A1, “COMPOUNDS COMPRISING A […] LIGAND AND USE THEREOF” (priority 2019, published 2022).
# Numbered stars: 1 amine (or outer) side, 2 acyl side, 3 side chain; on linkers, the order of the positions; unused ones are H or OH. Bridge positions count the residues as written; N and C are the ends. Square brackets hold non-standard residues; d marks the D form. Peptide text beside a SMILES is read from it. * marks the point of attachment. TBMB(SCH2CH2NH-DOTA) = O=C(O)CN1CCN(CC(=O)O)CCN(CC(=O)NCCSCc2cc(C[*:1])cc(C[*:2])c2)CCN(CC(=O)O)CC1; X4 = O=C1CN2CCN3CCN(CC(=O)N4CCN(Cc5cc(C[*:1])cc(C[*:2])c5)CC4)CCN(CC2)CC(=O)[O][In]([O]1)[O]C(=O)C3; X11 = O=C(CN1CCN2CCN3CCN(CC1)CC(=O)[O][In]([O]C(=O)C2)[O]C(=O)C3)NCCSCc1cc(CSCCN[*:2])cc(C[*:1])c1; X7 = O=C(CN1CCN2CCN3CCN(CC1)CC(=O)[O][In]([O]C(=O)C2)[O]C(=O)C3)NCCSCc1cc(C[*:1])cc(C[*:2])c1; X1 = O=C(O)CN1CCN(CC(=O)O)CCN(CC(=O)N2CCN(Cc3cc(C[*:1])cc(C[*:2])c3)CC2)CCN(CC(=O)O)CC1; Phe(2-CF3) = N[C@@H](Cc1ccccc1C(F)(F)F)C(=O)O; Pentanesulfonyl = CCCCCS(=O)(=O)*; Hexanoyl = CCCCCC(=O)*; Sar = CNCC(=O)O
# Key:
# [1] = target: T1, FAP-expressing human WI-38 fibroblasts (Homo sapiens, UniProt Q12884); assay: Competitive FACS binding assay; conditions: pIC50 Category (FACS), competition with 3 nM Cy5-labeled compound, 4° C., 1 hour
# T1 construct: FAP-expressing human WI-38 fibroblasts (ECACC) were cultured in EMEM; host or cells: WI-38 human fibroblasts
# T1 sequence (Q12884 1-760): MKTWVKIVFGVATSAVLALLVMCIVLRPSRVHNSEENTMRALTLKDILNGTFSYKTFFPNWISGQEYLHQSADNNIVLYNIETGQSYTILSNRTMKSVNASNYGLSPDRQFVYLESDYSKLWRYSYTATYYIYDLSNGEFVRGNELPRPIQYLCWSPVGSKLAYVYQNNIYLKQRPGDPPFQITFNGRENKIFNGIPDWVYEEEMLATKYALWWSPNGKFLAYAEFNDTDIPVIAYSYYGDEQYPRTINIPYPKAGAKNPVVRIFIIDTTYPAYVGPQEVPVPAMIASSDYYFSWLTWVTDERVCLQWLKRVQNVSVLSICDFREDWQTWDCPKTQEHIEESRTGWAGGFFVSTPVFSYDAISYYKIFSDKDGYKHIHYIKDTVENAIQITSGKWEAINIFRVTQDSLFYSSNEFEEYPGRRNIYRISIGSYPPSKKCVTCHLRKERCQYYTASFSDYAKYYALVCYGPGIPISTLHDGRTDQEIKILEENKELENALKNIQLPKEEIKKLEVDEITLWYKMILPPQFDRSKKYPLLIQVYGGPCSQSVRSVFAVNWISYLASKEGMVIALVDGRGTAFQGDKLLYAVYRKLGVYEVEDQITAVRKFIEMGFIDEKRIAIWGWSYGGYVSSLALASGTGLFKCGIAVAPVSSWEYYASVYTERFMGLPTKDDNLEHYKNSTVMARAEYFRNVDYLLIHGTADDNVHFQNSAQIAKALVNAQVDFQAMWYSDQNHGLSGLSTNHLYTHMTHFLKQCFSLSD
# Method: Cells were analyzed in an Attune NxT flow cytometer. […]
# Human recombinant FAP [2] = target: T2, Human recombinant FAP (Homo sapiens, UniProt Q12884); assay: Surface plasmon resonance (Biacore) assay; assay type: binding
# T2 sequence (Q12884 1-760): T1 sequence (Q12884 1-760)
# Human recombinant FAP [3] = target: T2, Human recombinant FAP; assay: FRET-based FAP protease activity assay; assay type: biochemical; design: purchased R&D systems 3715-SE; conditions: pIC50 Category (Activity), FRET substrate, 37° C.
Structure (SMILES),IC50 [1] [µM],Kd (Human recombinant FAP [2]) [µM],IC50 (Human recombinant FAP [3]) [µM]
"CCCCCC(=O)N[C@H]1CSCc2cc(CSCCNC(=O)CN3CCN(CC(=O)O)CCN(CC(=O)O)CCN(CC(=O)O)CC3)cc(c2)CSC[C@@H](C(=O)N[C@@H](CO)C(=O)O)NC(=O)[C@H](Cc2ccccc2)NC(=O)[C@H](CCC(N)=O)NC(=O)[C@H]([C@@H](C)O)NC(=O)[C@@H]2CCCN2C(=O)[C@@H]2CCCN2C1 [3BP-3658, Hex-[Cys(tMeBn(DOTA-AET))-Pro-Pro-Thr-Gln-Phe-Cys]-Ser-OH]",< 0.01,< 0.01,< 0.01
"CCCCCC(=O)N[C@H]1CSCc2cc(CSCCNC(=O)CN3CCN(CC(=O)O)CCN(CC(=O)O)CCN(CC(=O)O)CC3)cc(c2)CSC[C@@H](C(=O)N[C@@H](CC(=O)O)C(=O)O)NC(=O)[C@H](Cc2ccccc2)NC(=O)[C@H](CCC(N)=O)NC(=O)[C@H]([C@@H](C)O)NC(=O)[C@@H]2CCCN2C(=O)[C@@H]2CCCN2C1=O [3BP-3665, Hex-[Cys(tMeBn(DOTA-AET))-Pro-Pro-Thr-Gln-Phe-Cys]-Asp-OH] (Hexanoyl-CPPTQFCD-OH; linker 1-7 via TBMB(SCH2CH2NH-DOTA))",< 0.01,< 0.01,< 0.01
"CCCCCS(=O)(=O)N[C@H]1CSCc2cc(CSCCNC(=O)CN3CCN(CC(=O)O)CCN(CC(=O)O)CCN(CC(=O)O)CC3)cc(c2)CSC[C@@H](C(=O)O)NC(=O)[C@H](Cc2ccccc2)NC(=O)[C@H](CCC(N)=O)NC(=O)[C@H]([C@@H](C)O)NC(=O)[C@@H]2CCCN2C(=O)[C@@H]2CCCN2C1=O [3BP-3690, Pentyl-SO2-[Cys(tMeBn(DOTA-AET))-Pro-Pro-Thr-Gln-Phe-Cys]-OH]",< 0.01,< 0.01,< 0.01
"CCCCCS(=O)(=O)N[C@H]1CSCc2cc(cc(CN3CCN(C(=O)CN4CCN(CC(=O)O)CCN(CC(=O)O)CCN(CC(=O)O)CC4)CC3)c2)CSC[C@@H](C(=O)N[C@@H](CC(=O)O)C(=O)O)NC(=O)[C@H](Cc2ccccc2)NC(=O)[C@H](CCC(N)=O)NC(=O)[C@H]([C@@H](C)O)NC(=O)[C@@H]2CCCN2C(=O)[C@@H]2CCCN2C1=O [3BP-3692, Pentyl-SO2-[Cys(tMeBn(DOTA-PP))-Pro-Pro-Thr-Gln-Phe-Cys]-Asp-NH2] (Pentanesulfonyl-CPPTQFCD-OH; linker 1-7 via X1)",< 0.01,< 0.01,< 0.01
"CCCCCC(=O)N[C@H]1CSCc2cc(CSCCNC(=O)CN3CCN4CCN5CCN(CC3)CC(=O)[O][In]([O]C(=O)C4)[O]C(=O)C5)cc(c2)CSC[C@@H](C(N)=O)NC(=O)[C@H](Cc2ccccc2)NC(=O)[C@H](CCC(N)=O)NC(=O)[C@H]([C@@H](C)O)NC(=O)[C@@H]2CCCN2C(=O)[C@@H]2CCCN2C1=O [3BP-3712, Hex-[Cys(tMeBn(InDOTA-AET))-Pro-Pro-Thr-Gln-Phe-Cys]-NH2]",< 0.01,< 0.01,< 0.01
"CCCCCC(=O)N[C@H]1CSCc2cc(CSCCNC(=O)CN3CCN4CCN5CCN(CC3)CC(=O)[O][In]([O]C(=O)C4)[O]C(=O)C5)cc(c2)CSCCNC(=O)[C@H](Cc2ccccc2)NC(=O)[C@H](CCC(N)=O)NC(=O)[C@H]([C@@H](C)O)NC(=O)[C@@H]2CCCN2C(=O)[C@@H]2CCCN2C1=O [3BP-3713, Hex-[Cys(tMeBn(InDOTA-AET))-Pro-Pro-Thr-Gln-Phe-AET]] (Hexanoyl-CPPTQF; linker 1-C via X11)",< 0.01,< 0.01,< 0.01
"CCCCCS(=O)(=O)N[C@H]1CSCc2cc(cc(CN3CCN(C(=O)CN4CCN5CCN6CCN(CC4)CC(=O)[O][In]([O]C(=O)C6)[O]C(=O)C5)CC3)c2)CSC[C@@H](C(=O)N[C@@H](CC(=O)O)C(N)=O)NC(=O)[C@H](Cc2ccccc2)NC(=O)[C@H](CCC(N)=O)NC(=O)[C@H]([C@@H](C)O)NC(=O)[C@@H]2CCCN2C(=O)[C@@H]2CCCN2C1=O [3BP-3717, Pentyl-SO2-[Cys(tMeBn(InDOTA-PP))-Pro-Pro-Thr-Gln-Phe-Cys]-Asp-NH2] (Pentanesulfonyl-CPPTQFCD-NH2; linker 1-7 via X4)",< 0.01,< 0.01,< 0.01

# Results, then the compound that gave them:
IC50 [1] [µM],Kd (Human recombinant FAP [2]) [µM],IC50 (Human recombinant FAP [3]) [µM],Structure (SMILES)
< 0.01,< 0.01,< 0.01,"CCCCCC(=O)N[C@H]1CSCc2cc(CSCCNC(=O)CN3CCN(CC(=O)O)CCN(CC(=O)O)CCN(CC(=O)O)CC3)cc(c2)CSC[C@@H](C(=O)N(C)CC(=O)O)NC(=O)[C@H](Cc2ccccc2)NC(=O)[C@H](CCC(N)=O)NC(=O)[C@H]([C@@H](C)O)NC(=O)[C@@H]2CCCN2C(=O)[C@@H]2CCCN2C1 [3BP-3659, Hex-[Cys(tMeBn(DOTA-AET))-Pro-Pro-Thr-Gln-Phe-Cys]-Nmg-OH]"
< 0.01,< 0.01,< 0.01,"CCCCCC(=O)N[C@H]1CSCc2cc(CSCCNC(=O)CN3CCN(CC(=O)O)CCN(CC(=O)O)CCN(CC(=O)O)CC3)cc(c2)CSC[C@@H](C(=O)N[C@H](CC(=O)O)Cc2ccccc2)NC(=O)[C@H](Cc2ccccc2)NC(=O)[C@H](CCC(N)=O)NC(=O)[C@H]([C@@H](C)O)NC(=O)[C@@H]2CCCN2C(=O)[C@@H]2CCCN2C1 [3BP-3660, Hex-[Cys(tMeBn(DOTA-AET))-Pro-Pro-Thr-Gln-Phe-Cys]-Bhf-OH]"
< 0.01,< 0.01,< 0.01,"CCCCCC(=O)N[C@H]1CSCc2cc(CSCCNC(=O)CN3CCN(CC(=O)O)CCN(CC(=O)O)CCN(CC(=O)O)CC3)cc(c2)CSC[C@@H](C(=O)O)NC(=O)[C@H](Cc2ccccc2)NC(=O)[C@H](CCC(N)=O)NC(=O)[C@H]([C@@H](C)O)NC(=O)[C@@H]2CCCN2C(=O)[C@@H]2CCCN2C1 [3BP-3678, Hex-[Cys(tMeBn(DOTA-AET))-Nmg-Pro-Thr-Gln-Phe-Cys]-OH]"
< 0.01,< 0.01,< 0.01,"CCCCCC(=O)N[C@H]1CSCc2cc(CSCCNC(=O)CN3CCN(CC(=O)O)CCN(CC(=O)O)CCN(CC(=O)O)CC3)cc(c2)CSC[C@@H](C(=O)O)NC(=O)[C@H](Cc2ccccc2)NC(=O)[C@H](CCC(N)=O)NC(=O)[C@H]([C@@H](C)O)NC(=O)[C@@H]2C[C@@H](O)CN2C(=O)[C@@H]2CCCN2C1 [3BP-3679, Hex-[Cys(tMeBn(DOTA-AET))-Pro-Hyp-Thr-Gln-Phe-Cys]-OH]"
< 0.01,< 0.01,< 0.01,"CCCCCC(=O)N[C@H]1CSCc2cc(CSCCNC(=O)CN3CCN(CC(=O)O)CCN(CC(=O)O)CCN(CC(=O)O)CC3)cc(c2)CSC[C@@H](C(=O)O)NC(=O)[C@H](Cc2ccccc2C(F)(F)F)NC(=O)[C@H](CCC(N)=O)NC(=O)[C@H]([C@@H](C)O)NC(=O)[C@@H]2CCCN2C(=O)CN(C)C1=O [3BP-3680, Hex-[Cys(tMeBn(DOTA-AET))-Pro-Pro-Thr-Gln-Otf-Cys]-OH] (Hexanoyl-C[Sar]PTQ[Phe(2-CF3)]C-OH; linker 1-7 via TBMB(SCH2CH2NH-DOTA))"
< 0.01,< 0.01,< 0.01,"CCCCCC(=O)N[C@H]1CSCc2cc(CSCCNC(=O)CN3CCN4CCN5CCN(CC3)CC(=O)[O][In]([O]C(=O)C4)[O]C(=O)C5)cc(c2)CSC[C@@H](C(=O)NCC(=O)O)NC(=O)[C@H](Cc2ccccc2)NC(=O)[C@H](CCC(N)=O)NC(=O)[C@H]([C@@H](C)O)NC(=O)[C@@H]2CCCN2C(=O)[C@@H]2CCCN2C1=O [3BP-3714, Hex-[Cys(tMeBn(InDOTA-AET))-Pro-Pro-Thr-Gln-Phe-Cys]-Gly-OH] (Hexanoyl-CPPTQFCG-OH; linker 1-7 via X7)"
< 0.01,< 0.01,< 0.01,"CCCCCC(=O)N[C@H]1CSCc2cc(CSCCNC(=O)CN3CCN4CCN5CCN(CC3)CC(=O)[O][In]([O]C(=O)C4)[O]C(=O)C5)cc(c2)CSC[C@@H](C(=O)N(C)CC(=O)O)NC(=O)[C@H](Cc2ccccc2)NC(=O)[C@H](CCC(N)=O)NC(=O)[C@H]([C@@H](C)O)NC(=O)[C@@H]2CCCN2C(=O)[C@@H]2CCCN2C1=O [3BP-3715, Hex-[Cys(tMeBn(InDOTA-AET))-Pro-Pro-Thr-Gln-Phe-Cys]-Nmg-OH]"
< 0.01,< 0.01,< 0.01,"CCCCCC(=O)N[C@H]1CSCc2cc(CSCCNC(=O)CN3CCN4CCN5CCN(CC3)CC(=O)[O][In]([O]C(=O)C4)[O]C(=O)C5)cc(c2)CSC[C@@H](C(=O)O)NC(=O)[C@H](Cc2ccccc2)NC(=O)[C@H](CCC(N)=O)NC(=O)[C@H]([C@@H](C)O)NC(=O)[C@@H]2CCCN2C(=O)CN(C)C1=O [3BP-3716, Hex-[Cys(tMeBn(InDOTA-AET))-Nmg-Pro-Thr-Gln-Phe-Cys]-OH] (Hexanoyl-C[Sar]PTQFC-OH; linker 1-7 via X7)"
